Data on six compounds can be found in US6451733B1, “Synergistic herbicidal methods and compositions” (BASF Aktiengesellschaft, priority 1999, dated 2002).

What all share (experiment): Field trial, post-emergence weed control
Holding throughout (type): in vivo

For one assay, the system named is Polygonum convolvulus. The method, then: (§1) In the following examples, synergism for two-way combinations is determined by the Colby^1 method, i.e. the expected (or predicted) response of the combination is calculated by taking the product of the observed response for each individual component of the combination when applied alone divided by 100 and subtracting this value from the sum of the observed response for each component when applied alone. Synergism of the combination is then determined by comparing the observed response of the combination to the expected (or predicted) response as calculated from the observed responses of each individual component alone. If the observed response of the combination is greater than the expected (or predicted) response then the combination is said to be synergistic and falls within the definition of synergistic effect as previously defined.
(§2) In similar manner for the case of three-way combination, C3; is composed of component X plus component Y plus […] and Obs. designates the observed response of the combination C3. [formula]
(§3) Grassy and broadleaved weeds are either seeded perpendicular to the direction of the crop or broadcast in early to mid-May. The crop is seeded after the weed seed. Row width is 18 cm. The seed is drilled in with a Roger's 1.8 m width drill to a depth of 5 cm.
(§4) All trials employ standard accepted weed science procedures. Applications are made with a Roger's CO2-powered shrouded sprayer. Test design is a modified randomized complete block design with four replications. All applications are made post-emergence to the weeds and crop.
(§5) The test solutions are prepared by tank-mixing sufficient quantities of aqueous solutions and/or dispersions of the test compounds.
(§6) The treated plots are examined at intervals during the growing season and rated for percent control of weeds and crop injury. The data listed is an average of the replicates for that treatment. The Colby method of analysis is used to determine the resultant biological effect of the combination treatment as compared to the biological effect of each component when applied alone.

Another assay concerns Setaria viridis. The protocol: as §1, §2, §3, §4, §5, §6
The next assay relates to Galium aparine. The protocol:
as §1, §2, §3, §4, §5, §6

For another assay, the system named is Salsola kali. The method, then: as §1, §2, §3, §4, §5, §6
For the next assay, the system named is Stellaria media. The method, then:
as §1, §2, §3, §4, §5, §6

The test system of a further assay is Galeopsis tetrahit. The protocol: as §1, §2, §3, §4, §5, §6
The subject of another assay is Avena fatua. The protocol:
as §1, §2, §3, §4, §5, §6

The subject of a further assay is Vaccaria pyramaidata. The protocol: as §1, §2, §3, §4, §5, §6
In the next assay the test system is Brassica napus. The method, then: as §1, §2, §3, §4, §5, §6
Another assay concerns Sinapis arvensis. The method, then: as §1, §2, §3, §4, §5, §6
Assay [1] concerns Polygonum (smartweed) spp. The method, then: as §1, §2, §3, §4, §5, §6
The test system of another assay is Kochia scoparia. The method, then: as §1, §2, §3, §4, §5, §6
For a further assay, the system named is Chenopodium album. The protocol: as §1, §2, §3, §4, §5, §6
The test system of assay [2] is Brassica napus (imidazolinone tolerant). The method, then:
Synergism of the combination is then determined by comparing the observed response of the combination to the expected (or predicted) response as calculated from the observed responses of each individual component alone. If the observed response of the combination is greater than the expected (or predicted) response then the combination is said to be synergistic and falls within the definition of synergistic effect as previously defined.
as §2, §3, §4, §5, §6

The next assay relates to Amaranthus retroflexus. The protocol: as §1, §3, §4, §5, §6

In the case of `O=C(O)COc1ccc(Cl)cc1Cl` [2,4-D, 2,4-dichlorophenoxyacetic acid], the “Percent Control” value in the assay on Polygonum convolvulus (280 g/ha) is 48%; in the assay on Setaria viridis (280 g/ha), 0%; in the assay with Galium aparine (280 g/ha), 43%; in the assay with Salsola kali (280 g/ha), 35%; in the assay on Stellaria media (280 g/ha) it was 10%; in the assay with Galeopsis tetrahit (280 g/ha) it was 2%. The “Percent Control” value in the assay with Avena fatua (280 g/ha) came to 2%; in the assay with Vaccaria pyramaidata (280 g/ha), 51%; in the assay on Brassica napus (280 g/ha) it was 93%; with Sinapis arvensis (280 g/ha), 92%; in [1] (280 g/ha), 53%; with Kochia scoparia (280 g/ha) it was 52%. Also, the entries for the “Percent Control” value (in the assay with Chenopodium album (280 g/ha); in assay [2] (280 g/ha)) were 91% and 94%, respectively.
With `O=C(O)c1nc(Cl)ccc1Cl` [clopyralid], the “Percent Control” value was 0% in the assay on Galium aparine (150 g/ha); 10% in the assay with Stellaria media (150 g/ha); 12% in the assay with Brassica napus (150 g/ha); 16% in the assay on Sinapis arvensis (150 g/ha); 51% with Chenopodium album (150 g/ha); 8% in assay [2] (150 g/ha).
For `CCOC(=O)[C@@H](C)Oc1ccc(Oc2nc3ccc(Cl)cc3o2)cc1` [fenoxaprop-p-ethyl], the “Percent Control” value worked out at 0% in the assay on Polygonum convolvulus (72 g/ha); 98% in the assay on Setaria viridis (72 g/ha); 0% with Vaccaria pyramaidata (72 g/ha); 0% with Brassica napus (72 g/ha); 0% with Sinapis arvensis (72 g/ha); 0% in the assay with Chenopodium album (72 g/ha). Moreover, the “Percent Control” value in [2] (72 g/ha) is reported as 0%; in the assay on Amaranthus retroflexus (72 g/ha), 9%.
On to `O=C(Nc1ccc(F)cc1)c1cccc(Oc2cccc(C(F)(F)F)c2)n1` [picolinafen], for which the “Percent Control” value with Polygonum convolvulus (50 g/ha) is 54%; in the assay on Setaria viridis (50 g/ha), 14%; in the assay on Galium aparine (50 g/ha), 28%; in the assay on Salsola kali (50 g/ha), 56%; in the assay on Stellaria media (50 g/ha) it was 64%; with Galeopsis tetrahit (50 g/ha), 59%. The “Percent Control” value turned out to be 5% with Avena fatua (50 g/ha); 63% in the assay on Vaccaria pyramaidata (50 g/ha); 70% in the assay on Brassica napus (50 g/ha); 78% in the assay on Sinapis arvensis (50 g/ha); 26% in [1] (50 g/ha); 59% in the assay on Kochia scoparia (50 g/ha). Besides, the “Percent Control” value with Chenopodium album (50 g/ha) worked out at 57%; in assay [2] (50 g/ha) it was 65%; with Amaranthus retroflexus (50 g/ha), 90%.
Regarding `CCO/N=C(\CC)C1=C(O)CC(c2c(C)cc(C)cc2C)CC1=O` (centres unmarked) [tralkoxydim], the “Percent Control” value in the assay on Polygonum convolvulus (200 g/ha) came out at 0%; in the assay with Avena fatua (200 g/ha), 97%; with Vaccaria pyramaidata (200 g/ha) it was 0%; with Brassica napus (200 g/ha), 0%; in the assay with Sinapis arvensis (200 g/ha), 0%; in the assay with Chenopodium album (200 g/ha) it was 0%. Also, the “Percent Control” value worked out at 0% in [2] (200 g/ha) and 1% in the assay on Amaranthus retroflexus (200 g/ha).
For the compound imazamethabenz methyl, the “Percent Control” value with Setaria viridis (400 g/ha) is listed as 10%; with Galium aparine (400 g/ha), 48%; with Salsola kali (400 g/ha), 9%; in the assay with Stellaria media (400 g/ha), 8%; in the assay with Galeopsis tetrahit (400 g/ha), 4%; in the assay with Avena fatua (400 g/ha) it was 88%. The “Percent Control” value in the assay with Vaccaria pyramaidata (400 g/ha) came out at 20%; in assay [1] (400 g/ha), 76%; with Kochia scoparia (400 g/ha), 31%; in the assay with Chenopodium album (400 g/ha), 18%; in assay [2] (400 g/ha), 0%.
